Laboratory results from article PMC7886681, “Characterization and Validation of Arg286 Residue of IL-1RAcP as a Potential Drug Target for Osteoarthritis” (Frontiers in Chemistry, 2021).
Each block holds one molecule with its values, some of them ahead of it. Bridges are numbered along the chain shown (N, C = ends). Where no end group is shown, it is not given here.

Tests used:
[1] = system: IL-1β signaling in HEK-Blue IL-1β cells; assay: HEK-Blue IL-1β reporter cell assay (SEAP); assay type: cell-based, human; settings: 2 μM peptide; IL-1β 2.5 ng/ml; triplicate
Experimental: HEK 293 reporter cells for human IL-1β (HEK-Blue IL-1β cells, Invivogen) were used to test the ability of peptide variants to inhibit IL-1β signaling pathway. HEK-Blue IL-1β cells were used according to manufacturer instructions. HEK-Blue IL-1β cells were cultured in Dulbecco's modified Eagle's medium (DMEM, Gibco) additioned with 10% heat inactivated fetal bovine serum (ATCC), 4.5 g/l glucose (Sigma), and 2 mM L-glutamine (ATCC) at 37°C, 5% CO2, in a humidified environment. HEK-Blue IL-1β cells (5,000 cells/well) were plated into 96-well tissue culture plates. The following day, cells were pre-treated for 1 h with peptide variants (Peptides 1.0, 1.1, 1.2, 2.0, 3.0, 4.0, and 4.3) or soluble IL-1RAcP (2 ng/μL) as a positive control. The cells were then stimulated with IL-1β at 2.5 ng/ml for 30 min. Following stimulation, the medium was changed and the inhibitors were added again to the plate. The cells were then left to incubate overnight. The next day, 160 μl of QUANTI-Blue (Invivogen) were added to each well. The plate was incubated at 37°C for 1 h. Then, the plate was placed in a spectrophotometer to detect the levels of secreted embryonic alkaline phosphatase (SEAP) in each well at a wavelength of 625–655 nm. Each peptide was tested in triplicate and an ANOVA test with Dunnett's test for multiple comparisons was performed to determine significance of inhibition.

[2] = molecular target: IL-1β:IL-1RI:IL-1RAcP complex (Homo sapiens, UniProt P01584+P14778); assay: Receptor complex immunoprecipitation pull-down with IL-1β western blot; assay type: biochemical; settings: for IL-1β pull down inhibition: concentration not given
Experimental: IL-1β (20 ng μl^−1), IL-1RI (100 ng μl^−1), and 6xHis-tagged IL-1RAcP (40 ng μl^−1) were incubated with parent Peptide 1.0, a peptide variant, or the antibody inhibitor at various concentrations in 50 μl of PBS for 1 h at room temperature under rotation. In parallel, IL-1β, IL-1RI, and 6xHis-tagged IL-1RAcP were allowed to interact without parent Peptide 1.0 as a positive control. IL-1β by itself acted as a negative control. BcMag Protein G Magnetic Beads (50 μl, Bioclone) were washed 3 times with washing buffer (57.7 mM Na2HPO4, 42.3 mM NaH2PO4, pH 7.0), incubated with anti-6xHis mouse monoclonal antibody (1 μg, Abcam) for 30 min under rotation, isolated with neodymium magnets, and washed three times with washing buffer (57.7 mM Na2HPO4, 42.3 mM NaH2PO4, pH 7.0). Protein complex mixtures were incubated with the anti-His antibody decorated magnetic beads for 1 h at room temperature under rotation. Magnetic beads were separated (neodymium magnets) and washed 3X with buffer (57.7 mM Na2HPO4, 42.3 mM NaH2PO4, pH 7.0). Immunoprecipitated proteins were eluted with 20 μl of 4X sample buffer (10 min, 70°C) and analyzed by western blotting (anti-IL1β antibody).
SDS-PAGE was used to separate the immune-precipitated proteins in a 4–20% Tris-Glycine gel for 90 min at 125 V. The proteins were transferred for 2 h at 25 V onto an Immobilion PVDF membrane. After blocking the membrane using PBS containing 0.2% (w/v) I-Block and 0.1% Tween 20 for 1 h at room temperature (or overnight at 4°C), the membrane was subjected to a 2-h incubation with an anti-IL1β antibody (1:1,000, Cell Signaling Technology) while undergoing continuous agitation. The membrane was washed with PBS containing 0.1% Tween 20, then subjected to a 1-h incubation with the secondary anti-mouse horseradish-peroxidase-conjugated anti-IgG antibody (1:10,000, Invitrogen). The western blot was developed using a chemiluminescence system (SuperSignal^TM West Dura Extended Duration Substrate) and imaged using a Kodak 4000MM system.
Statistical tests (One-way ANOVA with Dunnett's Multiple Comparison adjustment) and non-linear regression of the dose response pull down peptide inhibition data were performed using GraphPad Prism.

interleukin 1β (IL-1β) [3] = molecular target: T1, interleukin 1β (IL-1β) (UniProt P01584 117-269); assay: cell-based or functional assay
interleukin 1β (IL-1β) [4] = molecular target: T1, interleukin 1β (IL-1β); assay: pull-down; IL-1β (20 ng/µl), IL-1RI (100 ng/µl) and 6xHis-tagged IL-1RAcP (40 ng/µl) incubated with or without peptide at various concentrations in 50 µl PBS, 1 h, room temperature; captured on anti-6xHis antibody on Protein G magnetic beads; washed in phosphate buffer pH 7.0; western blot with anti-IL-1β; band intensity relative to the control without peptide; settings: both partners purified

IL-1β:IL-1RI:IL-1RAcP complex, sequence (P01584 117-269): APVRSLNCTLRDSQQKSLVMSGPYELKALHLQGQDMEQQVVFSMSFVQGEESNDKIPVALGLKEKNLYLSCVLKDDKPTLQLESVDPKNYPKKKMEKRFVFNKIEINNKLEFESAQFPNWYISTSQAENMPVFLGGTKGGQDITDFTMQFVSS
IL-1β:IL-1RI:IL-1RAcP complex, sequence (P14778 18-332 limits assumed): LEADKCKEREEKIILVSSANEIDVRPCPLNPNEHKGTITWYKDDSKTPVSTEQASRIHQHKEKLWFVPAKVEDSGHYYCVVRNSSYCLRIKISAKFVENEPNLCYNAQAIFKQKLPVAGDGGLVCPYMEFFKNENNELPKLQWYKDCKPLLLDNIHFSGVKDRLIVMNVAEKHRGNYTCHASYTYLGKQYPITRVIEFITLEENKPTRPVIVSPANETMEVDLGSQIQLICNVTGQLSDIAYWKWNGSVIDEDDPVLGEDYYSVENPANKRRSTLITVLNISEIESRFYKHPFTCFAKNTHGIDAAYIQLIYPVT

Molecule: T C NESISHS R TEDETRTQ C LS (disulfide) [Peptide 1.2, cyclized Peptide 1.0 variant, cycle length 18]
difference in inhibition of IL-1β signaling versus Peptide 1.0 [1]: 28% | IL-1β concentration in the pulled down fraction, % of positive control ([2]; 0.4 nM peptide): 60% | IL-1β concentration in the pulled down fraction, % of positive control ([2]; 4 nM peptide): 51% | IL-1β concentration in the pulled down fraction, % of positive control ([2]; 40 nM peptide): 35% | IL-1β pull down inhibition [2]: higher than 45%

Molecule: TINESISHS R TEDETRTQILS [Peptide 1.0, synthetic peptide mimicking IL-1RAcP Arg286 hot spot region]
IL-1β pull down ([2]; 12.5 nM peptide, relative to positive control without inhibitor): 60% | reduction of IL-1β pull down ([2]; 124 and 62 nM peptide): 26–30% | IL-1β pull down inhibition [2]: higher than 45%

B2: Peptide 1.0 (peptide)
peptide: TINESISHSRTEDETRTQILS
notes: Linear, 21 residues; also called parent Peptide 1.0; lead peptide; source: synthetic peptide (Peptide 2.0, Inc; Fmoc/tBu solid phase, RP-HPLC to 98% purity)
% IL-1β pull down with IL-1RAcP relative to no peptide (peptide at 12.5 nM) (interleukin 1β (IL-1β) [4]): 60%

B4: Peptide 1.2 (peptide)
peptide: TCNESISHSRTEDETRTQCLS
modifications: disulfide 2-19
notes: IL-1RAcP stretch around Arg286 with two isoleucines replaced by cysteine; source: synthetic peptide (Peptide 2.0, Inc; Fmoc/tBu solid phase, RP-HPLC to 98% purity)
HEK-Blue IL-1β reporter cells (SEAP), inhibition of IL-1β signalling at 2 µM peptide, difference from Peptide 1.0; blocks formation of the IL-1β complex with IL-1RI and IL-1RAcP (interleukin 1β (IL-1β) [3]): 28% | % IL-1β pull down with IL-1RAcP relative to no peptide (peptide at 0.4 nM) (interleukin 1β (IL-1β) [4]): 60% | % IL-1β pull down with IL-1RAcP relative to no peptide (peptide at 4 nM) (interleukin 1β (IL-1β) [4]): 51% | % IL-1β pull down with IL-1RAcP relative to no peptide (peptide at 40 nM) (interleukin 1β (IL-1β) [4]): 35%

Continued, in another order:

IL-1β concentration in the pulled down fraction, % of positive control ([2]; 0.04 nM peptide): 102% | IL-1β concentration in the pulled down fraction, % of positive control ([2]; 40 nM peptide): 36% | IL-1β pull down inhibition [2]: higher than 45%
Molecule: T C N Q SISHS R T QNQ TRTQ C LS (disulfide) [Peptide 4.2, cyclized Gln/Asn variant, cycle length 18]
difference in inhibition of IL-1β signaling versus Peptide 1.0 [1]: 42%

IL-1β in the pulled-down fraction, % of positive control ([2]; 25 nM peptide): 99%
Molecule: TINESISHS A TEDETRTQILS [Peptide 2.0, negative control peptide with alanine instead of arginine in position 286]

IL-1β concentration in the pulled down fraction, % of positive control ([2]; 0.04 nM peptide): 112% | IL-1β pull down reduced to ([2]; 40 and 4 nM peptide, relative to positive control without inhibitor): 8–9% | IC50 ([2]; His-tagged IL-1RAcP pull-down, IL-1β western blot band intensity relative to positive control, non-linear regression of dose response, read-out: IC50, inhibition of IL-1β complex formation): 0.304 nM | IL-1β pull down inhibition [2]: higher than 45%
Molecule: TINESISHSRTEDETRMQILS [Peptide 3.0]

HEK-Blue IL-1β reporter cells (SEAP), inhibition of IL-1β signalling at 2 µM peptide, difference from Peptide 1.0; blocks formation of the IL-1β complex with IL-1RI and IL-1RAcP (interleukin 1β (IL-1β) [3]): 42% | % IL-1β pull down with IL-1RAcP relative to no peptide (peptide at 40 nM) (interleukin 1β (IL-1β) [4]): 36%
B1: Peptide 4.2 (peptide)
peptide: TCNQSISHSRTQNQTRTQCLS
modifications: disulfide 2-19
notes: IL-1RAcP stretch around Arg286 with two cysteines for isoleucines and Gln/Asn for Glu/Asp; source: synthetic peptide (Biomatik; Fmoc/tBu solid phase, RP-HPLC to 98% purity)

HEK-Blue IL-1β reporter cells (SEAP), inhibition of IL-1β signalling at 2 µM peptide, difference from Peptide 1.0; blocks formation of the IL-1β complex with IL-1RI and IL-1RAcP (interleukin 1β (IL-1β) [3]): 54% | IC50 (interleukin 1β (IL-1β) [4]): 0.303 nM
B3: Peptide 3.0 (peptide)
peptide: TINESISHSRTEDETRMQILS
notes: IL-1RAcP stretch around Arg286 with methionine at 293; source: synthetic peptide (Peptide 2.0, Inc; Fmoc/tBu solid phase, RP-HPLC to 98% purity)
